Target: T1, recombinant autotaxin (Homo sapiens, UniProt Q13822)
T1 construct: made in house; host or cells: Hi5 insect cells (baculovirus)
Test: Autotaxin test (enzyme test), Amplex Red fluorescence with LPC substrate
Type: biochemical
Conditions: autotaxin inhibition (enzyme test); for remaining activity at 10 µM: 10 μM compound, read-out: % Control at 10 μM
Procedure, shortened: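 Purified recombinant autotaxin (baculovirus Hi5-expressed) pre-incubated with compound 30 min at 22° C, then LPC (final 75 μM) added and reacted 90 min at 37° C in Tris pH 8 buffer with CaCl2. Choline released was coupled via alkaline phosphatase, choline oxidase and peroxidase to Amplex Red; resorufin fluorescence read in kinetic mode (ex 485/em 612 nm).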

Row | remaining activity at 10 µM | IC50 | Compound
1 | 78% |  | Cc1nc(C)c(C(=O)N2CCN3C(=O)c4cc(-c5ccc(Cl)cc5)ccc4NC(=O)C3C2)s1 (stereo not shown) [Compound A73, 7-(4-Chlorophenyl)-2-(2,4-dimethylthiazole-5-carbonyl)-1,3,4,11a-tetrahydro-2H,10H-2,4a,10-triazadibenzo[a,d]cycloheptene-5,11-dione]
2 | -2% | > 1 µM | CC(C)[C@H](O)C(=O)N1CCN2C(=O)c3cc(-c4ccc(Cl)cc4)ccc3NC(=O)C2C1 (stereo partly drawn) [Compound A74, 7-(4-Chlorophenyl)-2-((S)-2-hydroxy-3-methyl-butyryl)-1,3,4,11a-tetrahydro-2H,10H-2,4a,10-triaza-dibenzo[a,d]cycloheptene-5,11-dione]
3 | 55% |  | O=C1Nc2ccc(-c3ccc(Cl)cc3)cc2C(=O)N2CCN(C(=O)c3cnc[nH]3)CC12 (stereo not shown) [Compound A75, 7-(4-Chlorophenyl)-2-(3H-imidazole-4-carbonyl)-1,3,4,11a-tetrahydro-2H,10H-2,4a,10-triaza-dibenzo[a,d]cycloheptene-5,11-dione]
4 | 41% | > 1 µM | O=C1Nc2ccc(-c3ccc(Cl)cc3)cc2C(=O)N2CCN(C(=O)c3csc(-c4cccnc4)n3)CC12 (stereo not shown) [Compound A76, 7-(4-Chlorophenyl)-2-(2-pyridin-3-ylthiazole-4-carbonyl)-1,3,4,11a-tetrahydro-2H,10H-2,4a,10-triazadibenzo[a,d]cycloheptene-5,11-dione]
5 | 11% | > 1 µM | CC(C)[C@@H](O)C(=O)N1CCN2C(=O)c3cc(-c4ccc(Cl)cc4F)ccc3NC(=O)C2C1 (stereo partly drawn) [Compound A77, 7-(4-Chloro-2-fluorophenyl)-2-((R)-2-hydroxy-3-methylbutyryl)-1,3,4,11a-tetrahydro-2H,10H-2,4a,10-triazadibenzo[a,d]cycloheptene-5,11-dione]
6 | 16% | > 1 µM | CC(C)(C)CC(=O)N1CCN2C(=O)c3cc(-c4ccc(Cl)cc4Cl)ccc3NC(=O)C2C1 (stereo not shown) [Compound A78, 7-(2,4-Dichlorophenyl)-2-(3,3-dimethylbutyryl)-1,3,4,11a-tetrahydro-2H,10H-2,4a,10-triaza-dibenzo[a,d]cycloheptene-5,11-dione]
7 | -14% | 0.1 to 1 µM | CC(C)(C)CC(=O)N1CCN2C(=O)c3cc(-c4cc(F)c(Cl)c(F)c4)ccc3NC(=O)C2C1 (stereo not shown) [Compound A79, 7-(4-Chloro-3,5-difluorophenyl)-2-(3,3-dimethyl-butyryl)-1,3,4,11a-tetrahydro-2H,10H-2,4a,10-triazadibenzo[a,d]cycloheptene-5,11-dione]
8 | 44% |  | CC(C)(C)[C@H](N)C(=O)N1CCN2C(=O)c3cc(-c4ccc(Cl)cc4)ccc3NC(=O)[C@@H]2C1 [Compound A80, (S)-2-((S)-2-Amino-3,3-dimethylbutyryl)-7-(4-chloro-phenyl)-1,3,4,11a-tetrahydro-2H,10H-2,4a,10-triaza-dibenzo[a,d]cycloheptene-5,11-dione]
9 | 33% |  | O=C1Nc2ccc(-c3ccc(Cl)cc3)cc2C(=O)N2CCN(C(=O)[C@@H]3CCCN3C3CCNCC3)C[C@@H]12 [Compound A81, (S)-7-(4-Chlorophenyl)-2-((S)-1-piperidin-4-yl-pyrrolidine-2-carbonyl)-1,3,4,11a-tetrahydro-2H,10H-2,4a,10-triazadibenzo[a,d]cycloheptene-5,11-dione]
10 | -16% | 0.1 to 1 µM | Cc1ccc(-c2ccc3c(c2)C(=O)N2CCN(C(=O)CC(C)(C)C)CC2C(=O)N3)c(F)c1F (stereo not shown) [Compound A82, 7-(2,3-Difluoro-4-methylphenyl)-2-(3,3-dimethyl-butyryl)-1,3,4,11a-tetrahydro-2H,10H-2,4a,10-triazadibenzo[a,d]cycloheptene-5,11-dione]
11 | 81% |  | CC(C)(C)CC(=O)N1CCN2C(=O)c3cc(-c4cc(C(F)(F)F)ccc4F)ccc3NC(=O)C2C1 (stereo not shown) [Compound A83, 2-(3,3-Dimethylbutyryl)-7-(2-fluoro-5-trifluoromethyl-phenyl)-1,3,4,11a-tetrahydro-2H,10H-2,4a,10-triazadibenzo[a,d]cycloheptene-5,11-dione]
12 | 29% |  | CC(C)(C)CC(=O)N1CCN2C(=O)c3cc(-c4ccc(C(F)(F)F)cc4F)ccc3NC(=O)C2C1 (stereo not shown) [Compound A84, 2-(3,3-Dimethylbutyryl)-7-(2-fluoro-4-trifluoromethyl-phenyl)-1,3,4,11a-tetrahydro-2H,10H-2,4a,10-triazadibenzo[a,d]cycloheptene-5,11-dione]
13 | 13% | > 1 µM | CC(C)(C)CC(=O)N1CCN2C(=O)c3cc(-c4cc(Cl)ccc4F)ccc3NC(=O)C2C1 (stereo not shown) [Compound A85, 7-(5-Chloro-2-fluorophenyl)-2-(3,3-dimethylbutyryl)-1,3,4,11a-tetrahydro-2H,10H-2,4a,10-triaza-dibenzo[a,d]cycloheptene-5,11-dione]

Further lines, the compound ahead of its results:

Row | Compound | remaining activity at 10 µM | IC50
14 | CC(C)(C)[C@H](N)C(=O)N1CCN2C(=O)c3cc(-c4ccc(Cl)cc4F)ccc3NC(=O)C2C1 (stereo partly drawn) [Compound A61, 2-((S)-2-Amino-3,3-dimethylbutyryl)-7-(4-chloro-2-fluorophenyl)-1,3,4,11a-tetrahydro-2H,10H-2,4a,10-triazadibenzo[a,d]cycloheptene-5,11-dione] | -11% | > 1 µM
15 | CC(C)[C@H](N)C(=O)N1CCN2C(=O)c3cc(-c4ccc(Cl)cc4F)ccc3NC(=O)[C@@H]2C1 [Compound A62, (S)-2-((S)-2-Amino-3-methylbutyryl)-7-(4-chloro-2-fluorophenyl)-1,3,4,11a-tetrahydro-2H,10H-2,4a,10-triazadibenzo[a,d]cycloheptene-5,11-dione] | 27% | > 1 µM
16 | CC(C)[C@H](N)C(=O)N1CCN2C(=O)c3cc(-c4ccc(Cl)cc4F)ccc3NC(=O)[C@H]2C1 [Compound A63, (R)-2-((S)-2-Amino-3-methylbutyryl)-7-(4-chloro-2-fluorophenyl)-1,3,4,11a-tetrahydro-2H,10H-2,4a,10-triazadibenzo[a,d]cycloheptene-5,11-dione] | 67% | > 1 µM
17 | CC(C)(C)[C@H](O)C(=O)N1CCN2C(=O)c3cc(-c4ccc(Cl)cc4F)ccc3NC(=O)[C@@H]2C1 [Compound A64, (S)-7-(4-Chloro-2-fluorophenyl)-2-((S)-2-hydroxy-3,3-dimethylbutyryl)-1,3,4,11a-tetrahydro-2H,10H-2,4a,10-triazadibenzo[a,d]cycloheptene-5,11-dione] | 31% | > 1 µM
18 | CC(C)(C)[C@H](N)C(=O)N1CCN2C(=O)c3cc(-c4ccc(Cl)cc4F)ccc3NC(=O)[C@H]2C1 [Compound A65, (R)-2-((S)-2-Amino-3,3-dimethylbutyryl)-7-(4-chloro-2-fluorophenyl)-1,3,4,11a-tetrahydro-2H,10H-2,4a,10-triazadibenzo[a,d]cycloheptene-5,11-dione] | 48.5% | > 1 µM
19 | CC(C)(C)[C@H](N)C(=O)N1CCN2C(=O)c3cc(-c4ccc(Cl)cc4F)ccc3NC(=O)[C@@H]2C1 [Compound A66, (S)-2-((S)-2-Amino-3,3-dimethylbutyryl)-7-(4-chloro-2-fluorophenyl)-1,3,4,11a-tetrahydro-2H,10H-2,4a,10-triazadibenzo[a,d]cycloheptene-5,11-dione] | 9.5% | 0.1 to 1 µM
20 | Cn1cncc1C(=O)N1CCN2C(=O)c3cc(-c4ccc(Cl)cc4F)ccc3NC(=O)C2C1 (stereo not shown) [Compound A67, 7-(4-Chloro-2-fluorophenyl)-2-(3-methyl-3H-imidazole-4-carbonyl)-1,3,4,11a-tetrahydro-2H,10H-2,4a,10-triazadibenzo[a,d]cycloheptene-5,11-dione] | 19% | > 1 µM
21 | CC1(C)SCN[C@@H]1C(=O)N1CCN2C(=O)c3cc(-c4ccc(Cl)cc4F)ccc3NC(=O)C2C1 (stereo partly drawn) [Compound A68, 7-(4-Chloro-2-fluorophenyl)-2-((R)-5,5-dimethyl-thiazolidine-4-carbonyl)-1,3,4,11a-tetrahydro-2H,10H-2,4a,10-triazadibenzo[a,d]cycloheptene-5,11-dione] | -18% | 0.1 to 1 µM
22 | O=C1Nc2ccc(-c3ccc(Cl)cc3F)cc2C(=O)N2CCN(C(=O)[C@H]3NCC[C@@H]3O)CC12 (stereo partly drawn) [Compound A69, 7-(4-Chloro-2-fluorophenyl)-2-((2S,3S)-3-hydroxy-pyrrolidine-2-carbonyl)-1,3,4,11a-tetrahydro-2H,10H-2,4a,10-triazadibenzo[a,d]cycloheptene-5,11-dione] | 58% | 
23 | O=C1Nc2ccc(-c3ccc(Cl)cc3F)cc2C(=O)N2CCN(C(=O)[C@@H]3C[C@@H](O)CN3)CC12 (stereo partly drawn) [Compound A70, 7-(4-Chloro-2-fluorophenyl)-2-((2S,4R)-4-hydroxy-pyrrolidine-2-carbonyl)-1,3,4,11a-tetrahydro-2H,10H-2,4a,10-triazadibenzo[a,d]cycloheptene-5,11-dione] | 28% | > 1 µM
24 | O=C1Nc2ccc(-c3ccc(Cl)cc3)cc2C(=O)N2CCN(C(=O)C3CSC(c4ccncc4)N3)CC12 (stereo not shown) [Compound A71, 7-(4-Chlorophenyl)-2-(2-pyridin-4-ylthiazolidine-4-carbonyl)-1,3,4,11a-tetrahydro-2H,10H-2,4a,10-triazadibenzo[a,d]cycloheptene-5,11-dione] | 7% | > 1 µM
25 | O=C1Nc2ccc(-c3ccc(Cl)cc3)cc2C(=O)N2CCN(C(=O)c3c(C(F)(F)F)nc4ccccn34)CC12 (stereo not shown) [Compound A72, 7-(4-Chlorophenyl)-2-(2-trifluoromethylimidazo[1,2-a]pyridine-3-carbonyl)-1,3,4,11a-tetrahydro-2H,10H-2,4a,10-triazadibenzo[a,d]cycloheptene-5,11-dione] | 70% | > 1 µM

Reference: US20120115852A1, “HETEROCYCLIC COMPOUNDS AS AUTOTAXIN INHIBITORS” (Merck Patent Gesellschaft Mit Beschrankter Haftung, priority 2009, published 2012)
